This is an account of results in US11584727B2, “2-thioxothiazolidin-4-one derivatives active as transthyretin ligands and uses thereof” (BSIM Therapeutics, S.A., priority 2014, dated 2023).

As usually defined, the IC50 is the concentration that inhibits the measured activity by half.

Assay [1] concerns the target T1, wild type transthyretin (WT-TTR) (Homo sapiens, UniProt P02766).
T1 construct: made in house; host or cells: E. coli BL21 (DE3), pET23a plasmid
Description: WT-TTR amyloid fibril formation assay (turbidimetry, acid-induced). The format is biochemical. The following applies: for Fibril Formation (%): WT-TTR 3.6 μM, 1:1 TTR-compound stoichiometry, 37° C., normalized to no-compound control (100%).

Assay [2] deals with T2, thyroxine-binding globulin (TBG) (Homo sapiens, UniProt P05543).
T2 construct: from tissue; host or cells: human plasma
T2 sequence (P05543 21-415): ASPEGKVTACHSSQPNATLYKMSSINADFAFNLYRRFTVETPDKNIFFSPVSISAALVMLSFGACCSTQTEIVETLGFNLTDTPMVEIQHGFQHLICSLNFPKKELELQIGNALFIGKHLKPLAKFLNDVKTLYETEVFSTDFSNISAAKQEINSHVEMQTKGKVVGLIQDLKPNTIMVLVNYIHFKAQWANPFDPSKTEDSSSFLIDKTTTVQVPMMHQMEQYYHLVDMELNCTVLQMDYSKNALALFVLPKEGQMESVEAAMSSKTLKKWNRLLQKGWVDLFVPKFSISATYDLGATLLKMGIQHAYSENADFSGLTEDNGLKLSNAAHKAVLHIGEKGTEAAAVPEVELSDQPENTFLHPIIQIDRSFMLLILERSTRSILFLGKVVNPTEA
Put plainly: Thyroxine (T4) binding competition by gel electrophoresis in plasma, TBG band. The following applies: [125I]T4, in presence of compound. How it is done: Briefly, upon incubation of human plasma in the presence of the test compounds and radio-labeled T4 ([125I]T4), the samples are subjected to native PAGE. After electrophoresis, the gels are dried, subjected to phosphor imaging, and the intensity of the protein bands is then compared. […] The intensity of the bands decreases, as compared to the control samples (absence of compound), if the compound binds to the protein(s) competing with T4.
FIG. 24 presents the results of these experiments, where the bands in the gel correspond to the major T4 binding plasma proteins. […] The results were analyzed by calculation of the TTR/total (TTR+ALB+TBG) ratio for each sample collected at different time points. The displacement of T4 from TTR is calculated and plotted as the difference between the average of ratios of TTR/total protein for each control sample and the average of the ratios of TTR/total protein. […]
Five (5) μL of human plasma plus 0.25-0.5 μL of [125I]T4 (specific radioactivity 1250 μCi/m; concentration 320 μCi/mL; Perkin Elmer, Boston, Mass., U.S.A.) plus 5 μL of PBS with glycerol 50% are incubated for 1 hour at room temperature (RT) and the samples are subjected to native PAGE. After electrophoresis, the gels are dried, subjected to phosphor imaging (Typhoon 8600; Molecular Diagnostics, Amersham Biosciences), and analyzed using the ImageQuant program version 5.1. […]

The structures appear in SMILES notation.

Turning to `O=C(O)c1ccc2nc(-c3cc(Cl)cc(Cl)c3)oc2c1` [Tafamidis, reference compound], in assay [1] (pH 4.4, 72 hours), the “Fibril Formation (%)” value was 43%. Also, the “T4 bound to TBG” value in assay [2] is reported as 53.6%.
On to `COc1cc(/C=C2\SC(=S)N(CC(=O)O)C2=O)cc(Cl)c1O` [AT50-A00 (Z), (Z)-3-hydroxycarbonylmethyl-5-(3′-chloro-4′-hydroxy-5′-methoxyphenylmethylidene)-2-thioxothiazolidin-4-one], for which, in assay [1] (1:2 compound-protein stoichiometry (0.5×), TTR 3.6 μM), the “inhibition of fibril formation” value is “above 70%”. The “inhibitory activity against TTR amyloid fibril formation compared with reference compounds (in words)” value in assay [1] (TTR 3.6 μM, pH 4.4, 72 hours) is on record as “superior to that of reference compounds Tafamidis”. Besides, the “Fibril Formation (%)” value in assay [1] (pH 4.4, 72 hours) was found to be 28%. This compound registered an IC50 in assay [1] (WT-TTR fixed at 3.6 μM, ten compound concentrations, pH 4.4, 72 hours) of 1770 ± 240 nM. For the same compound, the “T4 bound to TBG” value in assay [2] came to 54.3%.
